Laboratory results from patent publication US20100087399A1 (priority 2007, published 2010).
Several values for one entry are separate records, joined by “and”; a condition that tells them apart may be missing. Equal entries are not always repeated.

Legend:
NF κB [1] = experiment: NF κB activation caused by chemotherapeutic agent in OVCAR-3 cells; assay type: cell-based, human; parameters: level of active NF κB (as percents of control) in the absence of CMA: concentration or dose not given beside the values; details: for level of active NF κB (as percents of control) in the presence of CMA: its salt or ester 1 × 10^−12 M
Procedure: (§1) The level of active NF κB in cell extract was measured with StressXpress NF κB, p50 ELISA Kit (StressGen, cat. No EKS-445) and luminescent spectrophotometer SM 2203 (Solar, Belarus).
The experiments were performed as described in Example 1. The human ovarian carcinoma cell lines OVCAR-3 was used. The cells were incubated at 37° C. in RPMI 1640 medium supplemented with 10% embryonic calf serum. […] Corresponding chemical agent or the vehicle (control) was added to the culture medium simultaneously with CMA, its salt or ester (1×10^−12 M). The cells were separated by centrifugation. The level of active NF κB was assessed in nuclear lysate.

alpha interferon = experiment: Serum alpha interferon in SK-OV-3 tumor-bearing nude mice (ELISA); assay type: in vivo; details: 0 mg/kg CMA
NF κB [2] = experiment: Level of active NF κB in cancer cells of ascitic fluid of SK-OV-3 tumor-bearing nude mice; assay type: in vivo; details: 0 mg/kg CMA
Procedure: as §1
To study the ability of different amounts of CMA to inhibit the NF κB activity, tumor growth and to increase the survival rate in combination with a chemotherapeutic agent, BALB/c female nude mice (6 to 8 weeks of age) were intraperitoneally injected with SK-OV-3 cells (1×10^7 cells/0.5 ml media/mouse). The all mice were divided into the several groups of animals (32 animals per group) which were treated with different doses of CMA, its salts or its ester. All mice were injected also ether with vehicle (diluent) or with chemotherapeutic agent or with or combinations of chemotherapeutic agent. Some groups were injected additionally with one or other aromatase inhibior, along with chemotherapeutic agent. Cisplatin (CP) was administered at dose 5 mg/kg intraperitoneally once weekly for the first 3 weeks; Doxorubicin (Dox) was given 8 mg/kg intravenously on days 0 and 7; Paclitaxel (Pcl) was injected intravenously at dose 10 mg/kg body weight thrice weekly, on alternate days for 4 weeks; 10 mg/kg/day. Toremifen was administered per os at dose 10 mg/kg/day in starch gel. Anastozole was injected subcutaneously with 5 μg of […] in 0.1 mL of PBS. CMA was administered once a day on each second day.
Also, the day of 50% survival rate was scored for other 16 animals in each group group. The serum alpha interferon (alpha IFN) level was measured 2 hours after first administration of CMA, its salts or it ester. Mouse IFN-alpha was measured in serum was detected (in pg/ml) using the enzyme-linked immunosorbent assay kit purchased from PBL Biomedical Laboratories (USA, Piscataway, N.J.).

SK-OV-3 cells = experiment: Survival of nude mice intraperitoneally injected with SK-OV-3 cells; assay type: in vivo; details: 0 mg/kg CMA
ovarian cancer [3] = experiment: Clinical case reports of combined therapy of ovarian cancer (Examples 7-9); assay type: in vivo, human; details: Example 7: stage III patient; 2 courses of cisplatin alone
NF κB [4] = experiment: Level of active NF κB in primary human ovarian cancer cells from ascitic fluid (StressXpress NF κB p50 ELISA); assay type: cell-based; details: 8 hours
ovarian cancer [5] = details: intraperitoneal alpha-interferon in combination with carboplatinum; cited from earlier work
ovarian cancer [6] = details: gamma-interferon added to cisplatinum+cyclophosphamide; cited from earlier work

N.N.[Cl][Pt][Cl] [Cisplatin, cisplatin]
level of active NF κB (as percents of control) in the absence of CMA (NF κB [1]; Cisplatin alone): 117% and 121% and 120% and 119% and 118% and 125% and 122% | interferon level (mean) (alpha interferon; Cisplatin (CP) alone): 4 pg/mL and 2 pg/mL and 3 pg/mL | level of NF kB (mean) (NF κB [2]; Cisplatin (CP) alone): 380 percent from the control and 356 percent from the control and 420 percent from the control | day when 50% of animals in the group were still alive (SK-OV-3 cells; Cisplatin (CP) alone): 34 days and 44 days and 42 days | clinical outcome (ovarian cancer [3]): No therapy effects were observed

O=P1(N(CCCl)CCCl)NCCCO1 (centres unmarked) [Cyclophosphamide, cyclophosphamide]
level of active NF κB (as percents of control) in the absence of CMA (NF κB [1]; Cyclophosphamide alone): 221% and 217% and 210% and 214%

COc1cccc2c1C(=O)c1c(O)c3c(c(O)c1C2=O)C[C@@](O)(C(=O)CO)C[C@@H]3O[C@H]1C[C@H](N)[C@H](O)[C@H](C)O1 [Doxorubicin, doxorubicin]
level of active NF κB (as percents of control) in the absence of CMA (NF κB [1]; Doxorubicin alone): 524% and 538% and 550% and 497% and 562% and 540% and 531% | interferon level (mean) (alpha interferon; Doxorubicin (Dox) alone): 3 pg/mL and 4 pg/mL and 5 pg/mL | level of NF kB (mean) (NF κB [2]; Doxorubicin (Dox) alone): 450 percent from the control and 470 percent from the control and 430 percent from the control | day when 50% of animals in the group were still alive (SK-OV-3 cells; Doxorubicin (Dox) alone): 36 days and 37 days and 43 days

CC(=O)O[C@H]1C(=O)[C@@]2(C)[C@H]([C@H](OC(=O)c3ccccc3)[C@]3(O)C[C@H](OC(=O)[C@H](O)[C@@H](NC(=O)c4ccccc4)c4ccccc4)C(C)=C1C3(C)C)[C@]1(OC(C)=O)CO[C@@H]1C[C@@H]2O [Paclitaxel, paclitaxel, reference compound]
interferon level (mean) (alpha interferon; Paclitaxel (Pcl) alone): 8 pg/mL and 6 pg/mL and 5 pg/mL | level of NF kB (mean) (NF κB [2]; Paclitaxel (Pcl) alone): 420 percent from the control and 411 percent from the control and 442 percent from the control | day when 50% of animals in the group were still alive (SK-OV-3 cells; Paclitaxel (Pcl) alone): 41 days and 40 days and 38 days

CCCOC(=O)Cn1c2ccccc2c(=O)c2ccccc21 [PropCMA]
active NF κB (in percents of control) (NF κB [4]; 1 × 10^−10 M, Patient 1): 32%/10 | active NF κB (in percents of control) (NF κB [4]; 1 × 10^−10 M, Patient 2): 31%/20 | active NF κB (in percents of control) (NF κB [4]; 1 × 10^−10 M, Patient 3): 36%/20 | active NF κB (in percents of control) (NF κB [4]; 1 × 10^−12 M, Patient 1): 68%/10 | active NF κB (in percents of control) (NF κB [4]; 1 × 10^−12 M, Patient 2): 59%/20 | active NF κB (in percents of control) (NF κB [4]; 1 × 10^−12 M, Patient 3): 64%/20 | active NF κB (in percents of control) (NF κB [4]; 1 × 10^−13 M, Patient 1): 89%/0 | active NF κB (in percents of control) (NF κB [4]; 1 × 10^−13 M, Patient 2): 91%/0 | active NF κB (in percents of control) (NF κB [4]; 1 × 10^−13 M, Patient 3): 81%/0 | level of active NF κB (as percents of control) in the presence of CMA (NF κB [1]; 5-FU + CMA): 86% | level of active NF κB (as percents of control) (NF κB [1]; CMA, its salt or ester 1 × 10^−12 M + Vechicle): 84% | level of active NF κB (as percents of control) in the presence of CMA (NF κB [1]; Cisplatin + CMA): 66% | level of active NF κB (as percents of control) in the presence of CMA (NF κB [1]; Cyclophosphamide + CMA): 95% | level of active NF κB (as percents of control) in the presence of CMA (NF κB [1]; Doxorubicin + CMA): 178%

alpha-interferon
efficacy in respect of ovarian cancer (ovarian cancer [5]): did not prove any efficacy

gamma-interferon: cytokine immunomodulator with antiviral and antitumor activity
number of patients who had no progression within the 3 year period (ovarian cancer [6]): 51%
